Each compound was assayed on MtMetAP1c-complemented E. coli cells (assay: Inhibition of MtMetAP1c-complemented E. coli cell growth). Conditions: highest concentration (1 mM) tested.

Row | Compound | growth inhibition at the highest concentration tested
1 | O=C(O)c1ccc(-c2cc(Cl)ccc2Cl)o1 [compound 3] | no inhibition
2 | Cc1ccc(CSc2nnc(N)[nH]2)cc1 [compound 6] | no inhibition
3 | Nc1nnc(SCc2ccc(F)cc2)[nH]1 [compound 5] | no inhibition

What follows are compounds tested against MtMetAP1c (Mycobacterium tuberculosis, UniProt P9WK19) (assay: Inhibition of purified MtMetAP1c apoenzyme activated by divalent metals). Conditions: apoenzyme activated by Co(II), Ni(II), Mn(II) or Fe(II).
Format: biochemical

MtMetAP1c, sequence (P9WK19 whole entry, looked up): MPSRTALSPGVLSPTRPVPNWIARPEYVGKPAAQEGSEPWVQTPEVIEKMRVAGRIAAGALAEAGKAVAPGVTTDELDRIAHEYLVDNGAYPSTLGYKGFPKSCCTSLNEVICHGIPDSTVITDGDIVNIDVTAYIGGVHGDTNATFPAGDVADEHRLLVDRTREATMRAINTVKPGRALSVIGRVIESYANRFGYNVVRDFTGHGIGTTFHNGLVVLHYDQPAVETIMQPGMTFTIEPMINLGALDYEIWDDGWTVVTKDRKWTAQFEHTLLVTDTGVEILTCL

Row | Compound | metalloform selectivity of inhibition of purified MtMetAP1c
4 | Cc1nc(-c2ccc(O)c(O)c2)cs1 [compound 1] | selective for the Fe(II) form
5 | Cc1ccsc1-c1ccc(O)c(O)c1 [compound 2] | selective for the Fe(II) form
6 | O=C(O)c1ccc(-c2cc(Cl)ccc2Cl)o1 [compound 3] | selective for the Mn(II) form

Reference: article PMC2820511 (Journal of medicinal chemistry, 2010)
